Laboratory results from patent publication US20040122013A1, “Analogs of nocicettin” (priority 2002, published 2004).
Where two headings read alike, the source gives them in different places.

What was measured:
mice [1] = assay type: in vivo, mouse
mouse vas deferens = experiment: Electrically induced twitch inhibition, mouse vas deferens (mVD)
guinea pig ileum = experiment: Electrically induced twitch inhibition, guinea pig ileum (gpI)
mice [2] = experiment: Mouse tail withdrawal assay (pronociception); assay type: in vivo
[3] = test system: N/OFQ-sensitive isolated tissues; experiment: N/OFQ-sensitive electrically stimulated isolated tissues (mouse and rat vas deferens, guinea pig ileum)
Excerpt: The compounds of the Table have been evaluated in vitro in several N/OFQ-sensitive isolated tissues from various species such as the rat, mouse and guinea pig and in Chinese hamster ovary cells expressing the human recombinant NOP receptor (CHOhNop). The conditions adopted for studying the effects of the compounds in the electrically stimulated tissues (mouse and rat vas deferens, guinea pig ileum) are described in Bigoni et al. (Naunyn Schmiedebergs Arch Pharmacol 359, 160-7, 1999, herein incorporated by reference), whereas the conditions adopted for investigating the effects in CHOhNop cells are disclosed in Okawa et al. (Br J Pharmacol 127, 123-130, 1999, herein incorporated by reference).

NOP receptor = experiment: Antagonism of agonist effects by naloxone and [Nphe1]N/OFQ(1-13)NH2; details: tested vs the novel agonist compounds or vs N/OFQ
Description: In isolated tissues the compounds having structure [Phe^1Ψ(CO—NH)Gly^2] mimicked the effects of N/OFQ inducing similar maximal effects, thus acting as full agonists, while those with the structure [Phe^1Ψ(CH2—NH)Gly^2] behaved as partial agonists producing lower maximal effects than N/OFQ. […] Some of the compounds evaluated in vitro were also tested in a battery of in vivo assays of biological functions regulated by N/OFQ. In all the assays most of the analogs mimicked the effects evoked by the natural peptide. In the locomotor activity assay some compounds have been tested at 1 nmol i.c.v. dose. These mimicked the inhibitory effect of N/OFQ, however while the effects of the natural peptide lasted for about 20 min, those induced by some of the novel derivatives were still evident after several hours. […] Similar results were also obtained in the mouse tail withdrawal assay were the compounds mimicked the hyperalgesic actions of N/OFQ.

[4] = target: T1, recombinant human NOP receptors expressed in HEK293 cells (Homo sapiens, UniProt P41146); details: Okada et al. 2000; cited from earlier work
T1 construct: host or cells: HEK293 cells

[5] = target: T2, human recombinant NOP receptor (Homo sapiens, UniProt P41146); experiment: biochemical; details: CHOhNOP, stimulation of GTPγS binding
T2 construct: expressed in transfected cells; host or cells: Chinese hamster ovary (CHO) cells

[6] = target: T2, human recombinant NOP receptor; experiment: cell-based; details: CHOhNOP, cAMP inhibition
[7] = locomotor activity depression, i.c.v., mice

T2 sequence (P41146 whole entry): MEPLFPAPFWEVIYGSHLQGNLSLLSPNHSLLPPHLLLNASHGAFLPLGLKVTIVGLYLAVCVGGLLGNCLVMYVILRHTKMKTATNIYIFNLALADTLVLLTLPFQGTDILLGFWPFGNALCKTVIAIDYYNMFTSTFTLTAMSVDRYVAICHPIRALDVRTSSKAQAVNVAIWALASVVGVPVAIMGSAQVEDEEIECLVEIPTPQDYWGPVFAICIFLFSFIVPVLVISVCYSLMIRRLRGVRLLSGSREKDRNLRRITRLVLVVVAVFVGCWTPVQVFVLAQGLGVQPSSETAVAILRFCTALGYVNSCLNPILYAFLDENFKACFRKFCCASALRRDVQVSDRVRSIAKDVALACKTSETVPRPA
T1 sequence (P41146 whole entry): as above

Compound | Effective dose (mice [1]; [7]) | Emax (mouse vas deferens) | pEC50 (mouse vas deferens) | Emax (guinea pig ileum) | pEC50 (guinea pig ileum) | Duration of action (mice [2]) | Effective dose (mice [2]) | further results
CC(C)C[C@H](NC(=O)[C@H](CCCCN)NC(=O)[C@H](CCCNC(=N)N)NC(=O)[C@H](C)NC(=O)[C@H](CO)NC(=O)[C@H](CCCCN)NC(=O)[C@H](CCCNC(=N)N)NC(=O)[C@H](C)NC(=O)CNC(=O)[C@@H](NC(=O)[C@H](Cc1ccccc1)NC(=O)CNC(=O)CNC(=O)[C@@H](N)Cc1ccccc1)[C@@H](C)O)C(=O)N[C@@H](C)C(=O)N[C@@H](CC(N)=O)C(=O)N[C@@H](CCC(N)=O)C(=O)O [N/OFQ, reference compound] | 1 nmol | 91 ± 2% | 7.77 | 56 ± 5% | 8.04 | 15 min | 1 nmol | –
H-Phe-Ψ(CH2NH)-Gly-Gly-(pF)Phe-Thr-Gly-Ala-Arg-Lys-Ser-Ala-Arg-Lys-Arg-Lys-Asn-Gln-NH2 [b)] | – | – | – | – | – | – | – | Intrinsic activity (full or partial agonist) ([3]; isolated tissues, maximal effect compared with N/OFQ): partial agonist activity
[Nphe^1]N/OFQ(1-13)NH2 | – | – | – | – | – | – | – | pA2 (NOP receptor): 6.0-6.4
[Arg^14,Lys^15]N/OFQ | – | – | – | – | – | – | – | Potency relative to N/OFQ [4]: 17 fold
[(pI)Phe^4]-N/OFQ-NH2 | – | – | – | – | – | – | – | Potency compared with N/OFQ ([3]; isolated tissues): lower
C[C@H](NC(=O)CNC(=O)[C@@H](NC(=O)[C@H](Cc1ccc(F)cc1)NC(=O)CNC(=O)CNC(=O)[C@@H](N)Cc1ccccc1)[C@@H](C)O)C(=O)N[C@@H](CCCNC(=N)N)C(=O)N[C@@H](CCCCN)C(=O)N[C@@H](CO)C(=O)N[C@@H](C)C(=O)N[C@@H](CCCNC(=N)N)C(=O)N[C@@H](CCCCN)C(=O)N[C@@H](CCCNC(=N)N)C(=O)N[C@@H](CCCCN)C(=O)N[C@@H](CC(N)=O)C(=O)N[C@@H](CCC(N)=O)C(N)=O [UFP-102] | 0.1 nmol | 94 ± 1% | 9.36 | 55 ± 4% | 8.98 | >120 min | 0.1 nmol | EC50 [5]: 0.0759 nM; Emax [5]: 12.26 ± 1.37; Duration of action (mice [1]; [7]): >3 h; Potency relative to N/OFQ (mice [1]; mouse, in vivo): more than 10 fold; EC50 [6]: 0.0676 nM; Emax [6]: 104 ± 3%; Intrinsic activity (full or partial agonist) [3]: full agonist activity; Potency compared with N/OFQ [3]: higher than that of N/OFQ
